Experimental data as given in US8389573B2, “Glycyrrhetinic acid derivatives” (Wellington Laboratories Inc., priority 2006, dated 2013).

Columns and labels:
[1] = system: AR promoter; test: AR-luc promoter luciferase assay in LNCaP cells; type: cell-based
From the text: Transfections: The Gal4 reporter construct containing 5× Gal4 response elements (pGal4) was kindly provided by Dr. Marty Mayo (University of North Carolina, Chapel Hill, N.C.). The Gal4 DBD-PPARγ construct was a gift of Dr. Jennifer L. Oberfield (Glaxo Wellcome Research and Development, Research Triangle Park, N.C.). The PPRE-luc construct contains three tandem PPREs with a minimal TATA sequence linked to the luciferase gene in pGL2. The AR-luc construct containing the −5400 to +580 region of the androgen receptor promoter was provided by Dr. Donald J. Tindall (Mayo Clinic, Rochester, Minn.), and the PSA-luc construct containing the 5.8-kilobase region of the PSA promoter was provided by Dr. Hong-Wu Cheng (University of California, Davis, Calif.). LNCaP cells (1×10^5) were seeded in 12-well plates in DMEM/Ham's F-12 media supplemented with 2.5% charcoal-stripped FBS and grown overnight. Transient transfections were performed using Lipofectamine reagent (Invitrogen) according to the protocol provided by the manufacturer. Transfection studies were performed using 0.4 μg of Gal4Luc, 0.04 μg of β-galactosidase, 0.04 μg of Gal4 DBD-PPARγ, 0.4 μg of AR-luc, and 0.3 μg of PSA-luc. […] A Lumicount luminometer (PerkinElmer Life and Analytical Sciences) was used to quantify luciferase and β-galactosidase activities, and the luciferase activities were normalized to β-galactosidase activity.

[2] = system: LNCaP cells; test: Western blot analysis and DNA fragmentation assay in LNCaP cells; type: cell-based, human
Experimental: Cell Proliferation and DNA Fragmentation Assays: LNCaP prostate cancer cells (2×10^4 per well) were added to 12-well plates and allowed to attach for 24 hr. The medium was then changed to DMEM/Ham's F-12 media containing 2.5% charcoal-stripped FBS, and either vehicle (DMSO) or the indicated C-DIMs were added. Fresh medium and indicated compounds were added every 48 hr, and cells were then trypsinized and counted after 2, 4, and 6 days using a Coulter Z1 cell counter (Beckman Coulter, Fullerton, Calif.). Each experiment was done in triplicate, and results are expressed as means±S.E. for each set of three experiments. The DNA fragmentation assay was performed using a BioVision Apoptotic DNA ladder extraction kit (BioVision, Mountain View, Calif.) according to the manufacturer's protocol.
Western Blot Analysis: Cells were seeded in DMEM:Ham's F-12 media containing 2.5% charcoal-stripped FBS for 24 hr and then treated with either the vehicle (DMSO) or the indicated compounds. Cells were collected by scraping in 150 μl high salt lysis buffer (50 mM HEPES, 0.5 M NaCl, 1.5 mM MgCl2, 1 mM EGTA, 10% (v/v) glycerol, 1% (v/v) Triton-X-100 and 5 μL/ml of Protease Inhibitor Cocktail (Sigma). The lysates were incubated on ice for 1 hr with intermittent vortexing followed by centrifugation at 20,000 g for 10 min at 4° C. Before electrophoresis, samples were boiled for 3 min at 100° C.; the amount of protein was determined and 60 μg protein applied per lane. Samples were subjected to SDS-PAGE on 10% gel at 120 V for 3 to 4 hr. Proteins were transferred on to polyvinylidene difluoride membrane (PVDF; Bio-Rad, Hercules, Calif.) at 0.9 amp for 90 min at 4° C. in 1× transfer buffer (48 mM Tris-HCl, 39 mM glycine, and 0.025% SDS). The membranes were blocked for 30 min with 5% TBST-Blotto (10 mM Tris-HCl, 150 mM NaCl (pH 8.0), 0.05% Triton X-100 and 5% non-fat dry milk) and incubated in fresh 5% TBST-Blotto with primary antibody overnight with gentle shaking at 4° C. After washing with TBST for 10 min, the PVDF membrane was incubated with secondary antibody (1:5000) in 5% TBST-Blotto for 2-3 hr. The membrane was washed with TBST for 10 min and incubated with 10 ml of chemiluminescence substrate (PerkinElmer Life Sciences) for 1.0 min and exposed to ImageTeK-H medical imaging film (Eastman American X-ray Supply, Inc.).

[3] = system: PPARγ; test: PPARγ-GAL4/GAL4-Luc or PPRE3-Luc transactivation in LNCaP cells; type: cell-based
From the text: Transfections: The Gal4 reporter construct containing 5× Gal4 response elements (pGal4) was kindly provided by Dr. Marty Mayo (University of North Carolina, Chapel Hill, N.C.). The Gal4 DBD-PPARγ construct was a gift of Dr. Jennifer L. Oberfield (Glaxo Wellcome Research and Development, Research Triangle Park, N.C.). The PPRE-luc construct contains three tandem PPREs with a minimal TATA sequence linked to the luciferase gene in pGL2. The AR-luc construct containing the −5400 to +580 region of the androgen receptor promoter was provided by Dr. Donald J. Tindall (Mayo Clinic, Rochester, Minn.), and the PSA-luc construct containing the 5.8-kilobase region of the PSA promoter was provided by Dr. Hong-Wu Cheng (University of California, Davis, Calif.). LNCaP cells (1×10^5) were seeded in 12-well plates in DMEM/Ham's F-12 media supplemented with 2.5% charcoal-stripped FBS and grown overnight. Transient transfections were performed using Lipofectamine reagent (Invitrogen) according to the protocol provided by the manufacturer. Transfection studies were performed using 0.4 μg of Gal4Luc, 0.04 μg of β-galactosidase, 0.04 μg of Gal4 DBD-PPARγ, 0.4 μg of AR-luc, and 0.3 μg of PSA-luc. Six hr after transfection, the transfection mix was replaced with complete media containing either vehicle (DMSO) or the indicated ligand for 20 to 22 hr. Cells were then lysed with 100 μl of 1× reporter lysis buffer, and 30 μl of cell extract was used for luciferase and β-galactosidase assays. A Lumicount luminometer (PerkinElmer Life and Analytical Sciences) was used to quantify luciferase and β-galactosidase activities, and the luciferase activities were normalized to β-galactosidase activity.

## COC(=O)[C@@]1(C)CC[C@]2(C)CC[C@]3(C)C(=CC(=O)[C@@H]4[C@@]5(C)C=C(C#N)C(=O)C(C)(C)[C@@H]5CC[C@]43C)[C@@H]2C1 [β-CDODA-Me, Methyl 2-cyano-3,11-dioxo-18β-oleana-1,12-dien-30-oate]
[1]
  luciferase activity of AR-Luc construct: decreased luciferase activity
[2]
  concentrations that decrease AR and PSA expression: 1 to 2.5 µM
  degradation of cyclin D1 after cotreatment with MG132: inhibited
  downregulation of AR, PSA and FKBP51 proteins after cotreatment with T007 or MG132: not affected
  induced proapoptotic responses after cotreatment with T007: not inhibited
[2]; 2.5 μM
  JNK (p-JNK), PI3K (p-Akt) and MAPK (p-Erk) pathways: induces activation
  decreased expression of AR, PSA and FKBP51 with kinase inhibitors: unaffected
  induction of EGR-1, ATF-3 and NAG-1: time-dependent induction
  p-Erk activation: remained elevated for 24 hr
  time of maximal activation of JNK: 8 h
  time of maximal activation of PI3K: 8 to 12 h
[2]; 1-5 μM, presence or absence of 10 nM DHT
  AR, PSA and FKBP51 expression: concentration-dependent decrease
[2]; 24 hr, 1-5 μM
  NAG-1 and ATF-3 proapoptotic proteins: induced
  cyclin D1 proteins and Rb phosphorylation: decrease
  p27 and p21 proteins: concentration-dependent induction
  proapoptotic responses accompanying NAG-1/ATF-3 induction: caspase-dependent PARP cleavage, DNA fragmentation, and decreased bcl2 expression
[2]; up to 24 hr
  time course of PARP cleavage, AR and Sp1: time-dependent induction of PARP cleavage and a decrease of both AR and Sp1
[3]
  induced transactivation after cotreatment with 10 μM T007: significant inhibition of induced transactivation
[3]; 1-5 μM
  PPARγ-dependent transactivation (luciferase activity): significantly induced luciferase activity
